“And” between values parts separate entries of the source, which are not always exact repeats. Identical values can stand only once. “Also recorded” adds a separate entry of the source.
Experiments:
[1] = Bleomycin-induced pulmonary fibrosis model in C57BL/6 mice (study INF-01): body weight and survival; type: in vivo
Protocol: (§1) Thirty-two C57/B6 mice were prospectively randomized into four equally sized groups of eight animals each. An additional four mice served as naïve controls. Pulmonary fibrosis was induced with a single dose of bleomycin (4 U/kg) given intra-nasally on Day 0. Animals' activity and weight were evaluated daily. IPI 926 or vehicle was given every other day from 10 days prior to bleomycin until sacrifice on Day 30, or IPI926 was given beginning on either Day 0 or Day 14 on alternate days until the end of the study. At the end of the study on Day 30, all mice were euthanized and bronchiolar lavage performed to enable an evaluation of the inflammatory infiltrate in the lungs and collect the fluid for possible cytokine evaluation. One lung from each animal was collected for histology, while the other was snap frozen and retained for possible additional analyses.
(§2) Bleomycin, a glycopeptides anti-cancer agent originally isolated from Streptomyces verticillus is currently approved for use against squamous cell carcinoma, testicular cancer and Hodgkin's disease. Pulmonary fibrosis is a significant toxicity associated with the use of bleomycin, occurring in a significant percentage of patients undergoing bleomycin therapy. In C57/B6 mice, pulmonary inflammation and subsequent fibrosis is reproducible following bleomycin treatment, and the severity of pulmonary fibrosis is dose-dependent with higher doses being used to evaluate short term inflammatory effects, while lower doses are used to study the longer term impact of pulmonary fibrosis. In this model, mice are given 4 U/kg of bleomycin intranasally and pulmonary fibrosis is evaluated histologically 30 days after the administration of the bleomycin.
Oral administration by gavage QOD for 30 days 40 mg/kg Administered volume varies by weight
Thirty-six (36) female C57B1/6 mice (Charles River Laboratories), aged 5 to 6 weeks, with a mean body weight of 19.7 g at study commencement, were used. Animals were individually numbered using an ear punch and housed in groups of eight animals per cage. Animals were acclimatized for 3 days prior to study commencement. During acclimatization, the animals were observed daily in order to reject animals that presented in poor condition.
Pulmonary fibrosis was induced with a single intra-nasal administration of bleomycin at 4 U/kg in 25 μL of saline. Animals were anesthetized by breathing isoflurane in a closed chamber (2-3% isoflurane 200-300 mls oxygen) to effect. When non-responsive to toe pinch, each animal was held in one hand in an upright position and the bleomycin placed in nares and the droplet watched until inhaled. […]
Animals were weighed and evaluated for respiratory distress daily. […]
All animals were weighed and evaluated for respiratory distress daily throughout this study. […]

[2] = system: white blood cells in bronchiolar lavage fluid; experiment: Bleomycin-induced pulmonary fibrosis model (INF-01): bronchiolar lavage fluid cell counts; type: in vivo, C57BL/6 mice; parameters: Bronchiolar lavage fluid counts WBC: unit not given here; conditions: for Bronchiolar lavage fluid counts % lymph / Bronchiolar lavage fluid counts % monos / Bronchiolar lavage fluid counts % neutro / Bronchiolar lavage fluid counts WBC: individual animals
Protocol: as §1
At necropsy, the inflammatory infiltrated was evaluated by counting cells in the fluid collected following bronchiolar lavage. Bronchiolar lavage was performed by inserting a 20-gauge cannula into the trachea, which was tied in place with suture. The cannula was attached to a 1 mL syringe which was used to deliver and then recover 1 mL of sterile PBS. This fluid was then centrifuged to recover the cells and the resulting fluid saved for potential evaluation. Cell counts were performed on a HTI PCE-90vet automated veterinary hematology analyzer.
At sacrifice, BAL fluids were collected from all animals. The cells from these fluids were evaluated for differential white count. The fluids were retained for cytokine analysis.

[3] = system: pulmonary fibrosis induced by bleomycin; experiment: Bleomycin-induced pulmonary fibrosis model (INF-01): lung histology scoring; type: in vivo, C57BL/6 mice; parameters: key to Chronic Inflammation (0-5): 0: None present; 1: Rare foci; minimal; 2: Scattered aggregates or mild diffuse inflammation; 3: Numerous aggregates or moderate diffuse inflammation; 4: More marked inflammation either scattered or diffuse; 5: More severe inflammation either scattered diffuse inflammation; conditions: for pulmonary fibrosis and associated inflammation compared to the vehicle control group: 40 mg/kg, not statistically significant (Kruskal-Wallis); for mean interstitial fibrosis foci count: foci that fill a 10x objective field; for mean chronic inflammation score / mean interstitial fibrosis score: scale 0-5; for Chronic Inflammation (0-5) / Interstitial Fibrosis (0-5) / Number of Foci of Interstitial Fibrosis that Fill a 10x Objective Field: individual animals
Protocol: as §1, §2
Each lung sample was trimmed into 1-3 sections. Tissues were embedded in paraffin and sectioned at approximately 5 microns. Two slides for each lung were stained. One was stained with hematoxylin and eosin (H&E) and another serial section was stained with a trichrome stain. All slides were examined by a board-certified veterinary pathologist. Tissues were scored for chronic inflammation and interstitial fibrosis according to the criteria in Table 5 below. In addition the number of foci of interstitial fibrosis in the lung that filled a 10× objective field (100× total magnification) were counted and reported. Statistical analysis was performed with GraphPad Prism version 4.03 and included a Kruskal-Walis test followed by a Dunn's post-test comparing all groups to each other. Individual animal findings are listed herein in the Tables below.
Lungs were taken at sacrifice on Day 30 for analysis. Lungs were removed and partitioned in two halves. On half was fixed in 10% formalin, before embedding and sectioning. Slides made from each sample were stained with H&E or Masson's Trichrome. The other half of lung sample were snap-frozen in liquid nitrogen and stored at −80 C for future analysis of mRNA by QT-PCR and/or proteomic analysis.

[4] = system: Sonic Hedgehog (SHh) and Gli-1; experiment: Immunohistochemistry of lung samples from the bleomycin lung fibrosis study for SHh and Gli-1; type: in vivo, C57BL/6 mice
Protocol: I. IHC protocol to detect Gli1 on murine and human tissues: Rabbit anti-mouse Gli1 (Novus Biologicals NBP1-03294), Whole Rabit IgG2 Positive control: RMS, BCC
• 1. Dilute the Gli1, 1:200, in DaVinci Green Diluent. Add ratIgG2a, at same dilution, to the negative controls. Add a volume of 300 μl to each slide. • 2. Incubate for 1.5 hours at room temperature.
Rabbit anti-human SHh (Abcam# ab53281). Isotype control: Whole Rabbit IgG Positive control: Pancreatic xenograft Secondary: Rabbit-on-Rodent Polymer (Biocare Medical RMR622) for xenografts or Mach 2 (Biocare Medical RHRP520) for human tissue Wash buffer: PBS+0.5% Tween Citrate Retrieval buffer DaVinci Green Primary Ab diluent (Biocrae Medical PD900) DAB Enhancer (Zymed Cat. No. 00-2021)
• 1. Dilute the SHH, 1:2000 (optimized on the DAKO autostainer), in DaVinci Green Diluent. Add RabbitIgG, at same dilution, to the negative controls. Add a volume of 300 μl to each slide. • 2. Incubate for 90 minutes at room temperature.

[5] = system: pulmonary fibrosis induced by bleomycin; experiment: Example 2B bleomycin-induced pulmonary fibrosis: hydroxyproline; type: in vivo, C57BL/6 mice; conditions: treatment begun on the day of bleomycin insult
Protocol: (§3) Experimental conditions used in this study are similar to the ones described in Example 2A. […] Mice were treated with bleomycin (BLM) on day 0 and controls received saline (SAL).

[6] = Example 2B bleomycin-induced pulmonary fibrosis: body weight and survival; type: in vivo, C57BL/6 mice
Protocol: as §3
The effects of IPI-926 in body weight and survival that accompany bleomycin insult are shown in FIGS. 15 and 16, respectively.

[7] = system: pancreatic adenocarcinoma; experiment: KPC mouse model of pancreatic adenocarcinoma / pancreatic animal models; type: in vivo
[8] = system: experimental liver metastasis; experiment: Mouse model of experimental liver metastasis; type: in vivo; conditions: prophylactic administration
[9] = Group 3: Qod, Day 0 to Day 30, individual animals
[10] = Group 2: Qod, Day −10 to Day 30
[11] = groups Day 0 to 30 or Day 14 to 30
[12] = all three treatments, Day-10 to Day 30 greatest effect

## CC1=C2C[C@H]3[C@@H](CC[C@@H]4C[C@H](NS(C)(=O)=O)CC[C@@]43C)[C@@H]2CC[C@@]2(C1)O[C@@H]1C[C@H](C)CN[C@H]1[C@H]2C [IPI-926]
[1]; [9]
  Daily Animal Weights, Day 14: 21.09
  Daily Animal Weights, Day 27: 21.09
[1]; group treated from Day −10 to Day 30
  animals that died or were euthanized: sac'd
[1]; mouse, in vivo
  weight gain relative to vehicle controls: reductions in weight gain relative to vehicle controls
[2]; Day −10 to 30
  mean lymphocytes in bronchiolar lavage fluid: 41%
  mean monocytes in bronchiolar lavage fluid: 1.5%
  mean neutrophils in bronchiolar lavage fluid: 48%
[2]; Day −10 to Day 30
  mean WBC count in bronchiolar lavage fluid: 1.53 ×10^6 cells/μL
[2]; Days 0-30
  mean WBC count in bronchiolar lavage fluid: 1.09 ×10^6 cells/μL
[2]; Days 14-20 (so in the source)
  mean WBC count in bronchiolar lavage fluid: 0.79 ×10^6 cells/μL
[2]; [10]
  Bronchiolar lavage fluid counts % lymph: 43% and 44% (2×) and 41% and 26% and 46%
  Bronchiolar lavage fluid counts % monos: 4% (2×) and 6% (2×) and 8% and 3%
  Bronchiolar lavage fluid counts % neutro: 43% and 41% and 48% and 60% and 49% and 47%
  Bronchiolar lavage fluid counts WBC: 0.6 and 1.3 and 2.1 (2×) and 1.9 and 1.2
[2]; Group 3: Qod, Day 0 to Day 30
  Bronchiolar lavage fluid counts % lymph: 41% and 45% and 46% (2×) and 40% and 56% and 51% and 49%
  Bronchiolar lavage fluid counts % monos: 4% (4×) and 3% (2×) and 7% and 5%
  Bronchiolar lavage fluid counts % neutro: 43% and 47% and 44% and 52% and 41% and 34% and 42% and 45%
  Bronchiolar lavage fluid counts WBC: 1.3 (3×) and 0.1 and 0.9 and 1.5 and 1.1 and 1.2
[2]; Group 4: Qod, Day 14 to Day 30
  Bronchiolar lavage fluid counts % lymph: 51% and 53% and 54% and 42% and 55% and 46% and 45% and 49%
  Bronchiolar lavage fluid counts % monos: 3% (3×) and 9% and 4% and 1% and 2% and 11%
  Bronchiolar lavage fluid counts % neutro: 42% and 28% and 41% and 50% and 35% and 49% and 43% and 45%
  Bronchiolar lavage fluid counts WBC: 1.1 (2×) and 0.9 (3×) and 0.4 (2×) and 0.6
[2]; all groups treated, greatest in Day 14 to Day 30 group
  white cell count in bronchiolar lavage: reductions in the number of white cells in the bronchiolar lavage; also recorded: Reductions in white cell count
[2]; [11]
  mean lymphocytes in bronchiolar lavage fluid: 47-49%
  mean neutrophils in bronchiolar lavage fluid: 42-44%
[3]
  pulmonary fibrosis and associated inflammation compared to the vehicle control group: reduction in pulmonary fibrosis and associated inflammation
[3]; listed as IPI926
  pulmonary fibrosis and associated inflammation compared to the vehicle control group: effective in reducing the histological features of bleomycin induced pulmonary fibrosis
[3]; Day −10 to Day 30
  mean interstitial fibrosis foci count: 2.1
  mean chronic inflammation score: 1.0
  mean interstitial fibrosis score: 1.0
[3]; Days 0 to 30
  mean interstitial fibrosis foci count: 3.4
  mean chronic inflammation score: 1.1
  mean interstitial fibrosis score: 1.1
[3]; Days 14 to 30
  mean interstitial fibrosis foci count: 5.9
  mean chronic inflammation score: 1.6
  mean interstitial fibrosis score: 1.6
[3]; [10]
  Chronic Inflammation (0-5): 1
  Interstitial Fibrosis (0-5): 1 (1-6 foci that fill a 10x objective field)
  Number of Foci of Interstitial Fibrosis that Fill a 10x Objective Field: 2 (2×) and 1 (3×) and 4 (2×)
[3]; Group 3: Qod, Day 0 to Day 30
  Chronic Inflammation (0-5): 1 (7×) and 2
  Interstitial Fibrosis (0-5): 1 (1-6 foci that fill a 10x objective field) (7×) and 2 (7-12 foci that fill a 10x objective field)
  Number of Foci of Interstitial Fibrosis that Fill a 10x Objective Field: 2 (3×) and 10 and 1 (2×) and 4 and 5
[3]; Group 4: Qod, Day 14 to Day 30
  Chronic Inflammation (0-5): 1 (5×) and 3 (2×) and 2
  Interstitial Fibrosis (0-5): 1 (1-6 foci that fill a 10x objective field) (5×) and 3 (13-18 foci that fill a 10x objective field) (2×) and 2 (7-12 foci that fill a 10x objective field)
  Number of Foci of Interstitial Fibrosis that Fill a 10x Objective Field: 2 (4×) and 14 and 17 and 7 and 1
[3]; all three treatments, Day 0 to Day 30 greatest effect
  Chronic Inflammation Scores compared to Vehicle (FIG. 7): reduce inflammation compared to the Vehicle control group
[3]; [12]
  Interstitial Fibrosis Scores compared to Vehicle (FIG. 8): reduce inflammation compared to the Vehicle control group
  number of foci of interstitial fibrosis compared to Vehicle (FIG. 9): reduce inflammation compared to the Vehicle control group
[3]; d=−10, Mann-Whitney test, p<0.05
  amount of lung fibrosis induced by bleomycin: decreases the amount of lung fibrosis induced by bleomycin in a statistically significant manner
[4]; d=−10, d=0, d=14
  SHh immunoreactivity: only IPI-926 administered at d=−10 appeared to have an effect on this signal
[4]; d=−10, d=0 and d=14
  Gli-1 immunoreactivity in comparison to vehicle treatment: appears to decrease the Gli-1 immunoreactivity
[5]
  fibrosis as ug of hydroxproline per g of animal body weight: reduces the fibrosis caused by bleomycin
[6]
  animal death / survival after bleomycin administration: significantly abrogates the increase in animal death
  body weight loss that accompanies bleomycin insult: reduces the dramatic loss in body weight
[7]; KPC mouse model
  desmoplastic infiltration: inhibition of desmoplastic infiltration
  metastasis: decreased metastasis
  survival: increased survival
[7]; pancreatic animal models
  desmoplastic component: dramatic effect on the desmoplastic component
[8]
  metastatic spread and survival: dramatic effects on metastatic spread and survival

— patent US20110183948A1, “TREATMENT OF FIBROTIC CONDITIONS USING HEDGEHOG INHIBITORS” (INFINITY PHARMACEUTICALS, INC., priority 2010, published 2011)
